Experimental data published in US20220409692A1, “Systems Chemico-Pharmacology Drugs and Methods of Use” (The Medical College of Wisconsin, priority 2019, published 2022).
Values joined by “and” are separate entries in the source; they are usually repeats but may differ in a detail not shown here. Equal entries are not always repeated. Where two headings read alike, the source gives them in different places. Peptide text beside a SMILES is read from it.

Legend:
neonatal rat pups = type: in vivo; conditions: for weight gain: P3-P10
Description: Data from lung sections and immunoblots from the samples were analyzed for statistical differences using GraphPad Prism version 8.4.3, for Windows (GraphPad Software, La Jolla, Calif.). Quantitative morphometric and cell count data are expressed as mean±SD scatter-plots adjacent to the representative images. Student t-test, or Mann-Whitney U test, was used for comparing two groups wherever appropriate. One-way analysis of variance with post-hoc Student-Newman-Keuls test was used when more than two groups of data were analyzed. Significant differences between groups were determined by either unpaired student's t-test or Mann-Whitney U test, depending on the distribution. Weight gain and survival data were analyzed using MedCalc Statistical Software version 15.2.1 (MedCalc Software bvba, Ostend, Belgium; http://www.medcalc.org). Kaplan-Meier survival curves were plotted using Kaplan-Meier tables constructed in GraphPad Prism. A p-value<0.05 was considered statistically significant.

RLMVEC = test: KYC thiylation of endothelial cell proteins in RLMVEC cultures; type: cell-based, rat
Description: FIG. 29. Effects of Oxidative Stress on KYC Thiylation of RLMVEC Proteins. (A) Streptavidin affinity blot of KYC thiylated proteins from cell lysates prepared from RLMVEC cultures treated with B-KYC (baseline), B-KYC+MPO+H2O2 (MPO-dependent), and B-KYC+H2O2 (H2O2-dependent). (B) Immunoblot for Nrf2 in RLMVEC cultures treated as described in A. (C) Immunoblot for Keap1 in RLMVEC cultures treated as described in A. (D) Immunoblot for HMGB1 in RLMVEC cultures treated as described in A.(E) Immunoblot for β-Actin in RLMVEC cultures treated as described in A.(F) Bar chart showing relative levels of KYC thiylation, Nrf2, Keap1, and HMGB1 as a function of β-Actin (n=2, *=p<0.05, statistical analysis was preformed by ANOVA with appropriate post hoc tests).
FIG. 31. MPO Oxidation of KYC Increases KYC Thiylation of Extracellular HMGB1. […] This conclusion is based on the relative levels of KYC thiylated HMGB1 in panel A vs. KYC thiylated HMGB1 as a function of HMGB1 protein in conditioned media vs. RLMVEC cell lysates.
Rat lung microvascular endothelial cells (RLMVEC) from neonatal Sprague-Dawley rats (RN-6011) and rat endothelial growth medium (EGM, M1266SF) were from Cell Biologics (Chicago, Ill.). Amicon®Ultra-4 centrifugal concentrators with 3K cut-off (UFC800324) were from Merck Millipore Ltd (Carrigtwohill, Ireland). PierceTM Streptavidin (#88816), Protein G (#88848), Protein A Magnetic Beads (#88845), PierceTM ECL Western Blotting Substrate (#32106), and SuperSignalTM West Femto Maximum Sensitivity Substrate (#34095) were from Thermo Fisher Scientific (Waltham, MA). Rabbit antibodies for myeloperoxidase heavy chain (MPO, sc-33596) and TLR4 (sc-10741) were from Santa Cruz Biotechnology (Dallas, Texas). Rabbit antibody for Cl-Tyr (HP5002) was from Hycult Biotech (Plymouth Meeting, PA). The chicken antibody for HMGB1 (326052233) was from SHINO-TEST Corporation (Kanagawa, Japan). Rabbit antibody for RAGE (GTX23611) was from GeneTex (Irvine, CA). Mouse antibodies for PECAM-1/CD31 (ab24590), for 8-OH-dG (ab48508), and for rat endothelial cell antigen-1 (RECA-1, ab9774) were from Abcam (Cambridge, MA). Rabbit antibody for Cox1 (sc-7950) and Cox2 (sc-7951) were from Santa Cruz Biotechnology. Mouse (ab190377) and rabbit (ab77302b) antibodies for HMGB1, and streptavidin-HRP (ab7403) were from Abcam (Cambridge, Mass.). Rabbit antibody for acetylated-HMGB1 (OASG03545) was from Aviva System Biology (San Diego, Calif.). Rabbit antibodies for Nrf2 (sc-722) and TLR4 (sc-30002) were from Santa Cruz Biotechnology (Dallas, Tex.). Rabbit antibody against Keap1 (ABS97) and mouse antibody for β-actin (A2228) were from Millipore-Sigma (St. Louis, Mo.). Rabbit antibody for cysteine sulfonyl (ADI-OSA-820) was from Enzo Life Sciences (Farmingdale, N.Y.). Mouse antibody for glutathionylated proteins (D8) and all other chemicals were from Sigma-Aldrich (St. Louis, Mo.). All antibodies were certified either by the manufacturer or were used previously and certified by the authors, as was the case for the anti-HMGB1 antibody.
Effects of Oxidative Stress on KYC Thiylation on Endothelial Cell Proteins in RLMVEC Cultures: To determine the effects of oxidative stress on KYC thiylation, RLMVEC cultures were treated with B-KYC to follow KYC thiylation with streptavidin-affinity blotting as outlined in Methods. Three different levels of oxidative stress were used to determine the effects of oxidative stress on KYC thiylation of endothelial cell proteins: media alone (baseline); media containing MPO+H2O2 (MPO-dependent); and media containing H2O2 alone (H2O2-dependent) (FIG. 29A). KYC thiylation of RLMVEC proteins at baseline was low (FIG. 29A, first two lanes).

control mice = test: Increasing single IP doses of KYC in control mice; type: in vivo, mouse; conditions: unpublished, personal observations
[1] = tested on: cultured endothelial cells; conditions: added to culture media; cited from earlier work
[2] = tested on: lung lysates of neonatal rat pups; test: Hyperoxia-induced BPD in neonatal rat pups: immunoblot, affinity blot and pulldown analysis of lung lysates; conditions: for Nrf2 activation: lung lysates
Description: The dose of KYC (5 mg/kg twice per day) was chosen based on experience treating chronic inflammation in other disease states (58, 60, 61). […] Equal volumes of PBS were injected i.p. into the remaining half of the pups as an injection control. Pups were euthanized on P10 with carbon dioxide and lungs removed en bloc. A small cut was created on the left atrium and ice-cold normal saline was gently infused through the right ventricle to flush blood from the lungs before inflation for histology or snap-frozen in liquid nitrogen for protein studies. Pups from at least three litters were used in each experiment.
Immunoblot Analysis: Whole lung lysates were obtained by homogenizing in MOPS buffer (20 mM 3-N-morpholino-propanesulfonic acid, 2 mM EGTA, 5 mM EDTA, 30 mM NaF, 10 mM β-glycerophosphate, 10 mM Na pyrophosphate, 2 mM Na orthovanadate, 1 mM PMSF, 0.5% NP-40, 1% protease inhibitor cocktail, and 1% phosphatase inhibitor cocktails 2 and 3, pH 7.0) by Bullet Blender (Next Advance, Inc., Averill Park, N.Y.). For protein immunoblots, 30 μg of protein lysate was separated by SDS-PAGE, transferred to nitrocellulose membranes (0.22 μm), and then probed with the appropriate primary antibodies overnight at 4° C. on a continuously rocking platform. Signals were generated after incubation with horseradish peroxidase-conjugated goat anti-rabbit or anti-mouse IgG (1:8,000) using Western Bright ECL Chemiluminescent HRP Substrate (Advansta Inc., Menlo Park, Calif.). Integrated optical density (IOD) was calculated using ImageJ software and normalized to β-actin, a loading control.

[3] = normoxic pups, KYC vs untreated
[4] = RLMVEC cultures, baseline vs MPO-dependent vs H2O2-dependent
[5] = hyperoxic lungs, KYC vs PBS, P10
[6] = hyperoxic pups treated with KYC, P10, PBS 1.0±0.2
[7] = hyperoxic pups, KYC vs PBS, P10
[8] = lungs of hyperoxic pups, KYC vs PBS

With `CC(=O)N[C@@H](CCCCN)C(=O)N[C@@H](Cc1ccc(O)cc1)C(=O)N[C@@H](CS)C(N)=O` [KYC, N-acetyl lysyltyrosylcysteine amide] (Ac-Lys-Tyr-Cys-NH2) the “survival rate at P10” value (neonatal rat pups; hyperoxic (>90% O2) neonatal rat pups, KYC 5 mg/kg twice per day i.p., PBS group 82.8%) was 97.3% and ~98%, the “survival to P10 (survival analysis)” value (neonatal rat pups; hyperoxic pups, KYC vs PBS) was “higher probability of surviving to P10” and the weight gain (neonatal rat pups; hyperoxic pups, KYC vs PBS) was “time-dependent changes in weight gain were not significantly different”. For the same compound, the “survival to P10” value (neonatal rat pups; [3]) was “no significant differences in survival”, the weight gain (neonatal rat pups; [3]) was “gained more weight than untreated normoxic pups” and the “HMGB1 expression relative to β-actin” value (RLMVEC; [4]) was “increased in RLMVEC cultures subjected to H2O2-dependent KYC thiylation”. The “Keap1 expression relative to β-actin” value (RLMVEC; [4]) was “followed a pattern similar to Nrf2”, the “Nrf2 expression relative to β-actin” value (RLMVEC; [4]) was “increased in RLMVEC cultures subjected to MPO-dependent KYC thiylation” and the “KYC thiylation of HMGB1 released from RLMVEC cultures” value (RLMVEC; conditioned media, no KYC vs KYC vs MPO+H2O2+KYC) was “greater in RLMVEC cultures incubated with MPO+H2O2+KYC”. For the same compound, the “single dose at which observable adverse effects were induced” value (control mice) was 800 mg/kg, the “concentration with little to no effect on endothelial cell viability, apoptosis, necrosis, or mitochondrial function” value [1] was “up to 4000 μM” and the “CD31 levels (immunoblot, relative)” value ([2]; KYC-treated HOX group, P10, PBS-treated HOX 1.0±0.1) was 1.2±0.3. For the same compound, the “Nrf2 levels (FIG. 22)” value ([2]; hyperoxia exposed rat pup lungs) was “decreased Nrf2 levels”, the “NO2-Tyr levels (immunoblot, relative)” value ([2]; hyperoxia pups, KYC 5 mg/kg twice per day i.p., P10, PBS 1.0±0.1) was 0.6±0.2 and the “MPO levels (immunoblot, relative)” value ([2]; hyperoxia pups, KYC 5 mg/kg twice per day i.p., P10, PBS 1.0±0.3) was 0.6±0.1. The “cell death in lungs (FIG. 20)” value ([2]; hyperoxia-exposed rat pup lungs) was “reduces cell death”, the “reduction of Cl-Tyr formation” value [2, 5] was “approximately 27%” and the “reduction of MPO protein” value [2, 5] was “approximately 50%”. For the same compound, the “reduction of NO2-Tyr” value [2, 5] was “approximately 32%”, the “TLR4 expression in lungs (immunoblot, relative)” value ([2]; hyperoxic pups treated with KYC, P10, PBS 1.0±0.1) was 0.8±0.2 and the “HMGB1 levels in lungs (immunoblot, relative)” value [2, 6] was 0.6±0.2. For the same compound, the “RAGE expression in lungs (immunoblot, relative)” value [2, 6] was 0.5±0.2, the “HMGB1 isoform in lung lysates (non-acetylated vs lysyl-acetylated)” value ([2]; hyperoxic pups, KYC vs PBS) was “shifted the HMGB1 in lung lysates from the non-acetylated (HMGB1) to the lysyl-acetylated (Ac-HMGB1) isoform” and the “reduction of pulmonary Cox1” value ([2]; hyperoxic pups, KYC vs PBS) was 20-30%. The “reduction of pulmonary Cox2” value ([2]; hyperoxic pups, KYC vs PBS) was 60-70%, the “decrease of HMGB1 levels in lung homogenates/lysates” value [2, 7] was “approximately 38%” and the “increase of CD31 (endothelial cells)” value [2, 7] was “approximately 23%”. The “reduction of RAGE expression” value [2, 7] was 60%, the “sulfonyl HMGB1 levels” value ([2]; hyperoxic pups, relative to PBS-treated) was “increased sulfonyl HMGB1 levels” and the “S-glutathionylation of Keap1” value ([2]; lung lysates from hyperoxic pups) was “increased”. For the same compound, the “HMGB1 association with TLR4 (HMGB1 pulldown)” value ([2]; lung lysates from hyperoxic pups, KYC vs PBS) was “decreased HMGB1 association with TLR4”, the “B-KYC thiylation of Keap1” value ([2]; lung lysates from hyperoxic pups, KYC P2-P9 then once B-KYC 5 mg/kg) was “increased B-KYC thiylation of Keap1” and the Nrf2 activation ([2]; hyperoxic pups) was “increased Nrf2 activation in lung lysates from hyperoxic pups”. The Nrf2 activation ([2]; normoxic pups) was “increased Nrf2 activation in lung lysates”, the GST expression [2, 8] was “increased” and the “HMGB1 association with RAGE (HMGB1 pulldown)” value [2, 8] was “reduced”. For the same compound, the HO-1 expression [2, 8] was “increased” and the Trx expression [2, 8] was “increased”.
